Source: patent US20170190671A1, “BIS(ARYL)CATECHOL DERIVATIVES AS HERBICIDES” (E I DU PONT DE NEMOURS AND COMPANY, priority 2014, published 2017)

Columns and labels:
Format in all cases: in vivo
[1] = test system: pigweed (Amaranthus retroflexus); test: Test A postemergence; details: Amaranthus retroflexus, post-emergence, 240 h, 0 to 100 scale, read-out: Plant response rating, Pigweed
From the text: (§1) Seeds of plant species selected from barnyardgrass (Echinochloa crus-galli), kochia (Kochia scoparia), ragweed (common ragweed, Ambrosia elatior), Italian ryegrass (Lolium multiflorum), large (Lg) crabgrass (Digitaria sanguinalis), giant foxtail (Setaria faberii), morningglory (Ipomoea spp.), pigweed (Amaranthus retroflexus), velvetleaf (Abutilon theophrasti), wheat (Triticum aestivum), and corn (Zea mays) were planted into a blend of loam soil and sand and treated preemergence with a directed soil spray using test chemicals formulated in a non-phytotoxic solvent mixture which included a surfactant.
(§2) At the same time, plants selected from these crop and weed species and also blackgrass (Alopecurus myosuroides), and galium (catchweed bedstraw, Galium aparine) were planted in pots containing the same blend of loam soil and sand and treated with postemergence applications of test chemicals formulated in the same manner. Plants ranged in height from 2 to 10 cm and were in the one- to two-leaf stage for the postemergence treatment. Treated plants and untreated controls were maintained in a greenhouse for approximately 10 days, after which time all treated plants were compared to untreated controls and visually evaluated for injury. Plant response ratings, summarized in Table A, are based on a 0 to 100 scale where 0 is no effect and 100 is complete control. A dash (-) response means no test result.

[2] = test system: wheat (Triticum aestivum); test: Test A postemergence; details: Triticum aestivum, post-emergence, 240 h, 0 to 100 scale, read-out: Plant response rating, Wheat
From the text: as §1, §2

[3] = test system: ragweed (common ragweed, Ambrosia elatior); test: Test A postemergence; details: Ambrosia artemisiifolia, post-emergence, 240 h, 0 to 100 scale, read-out: Plant response rating, Ragweed
From the text: as §1, §2

[4] = test system: galium (catchweed bedstraw, Galium aparine); test: Test A postemergence; details: Galium, post-emergence, 240 h, 0 to 100 scale, read-out: Plant response rating, Galium
From the text: as §1, §2

[5] = test system: blackgrass (Alopecurus myosuroides); test: Test A postemergence; details: Alopecurus myosuroides, post-emergence, 240 h, 0 to 100 scale, read-out: Plant response rating, Blackgrass
From the text: as §1, §2

[6] = test system: Italian ryegrass (Lolium multiflorum); test: Test A postemergence; details: Lolium multiflorum, post-emergence, 240 h, 0 to 100 scale, read-out: Plant response rating, Ryegrass, Italian
From the text: as §1, §2

[7] = test system: barnyardgrass (Echinochloa crus-galli); test: Test A postemergence; details: Echinochloa crus-galli, post-emergence, 240 h, 0 to 100 scale, read-out: Plant response rating, Barnyardgrass
From the text: as §1, §2

[8] = test system: kochia (Kochia scoparia); test: Test A postemergence; details: Bassia scoparia, post-emergence, 240 h, 0 to 100 scale, read-out: Plant response rating, Kochia
From the text: as §1, §2

[9] = test system: giant foxtail (Setaria faberii); test: Test A postemergence; details: Setaria faberi, post-emergence, 240 h, 0 to 100 scale, read-out: Plant response rating, Foxtail, Giant
From the text: as §1, §2

[10] = test system: corn (Zea mays); test: Test A postemergence; details: Zea mays, post-emergence, 240 h, 0 to 100 scale
From the text: as §1, §2

[11] = test system: pigweed (Amaranthus retroflexus); test: Test A preemergence; details: Amaranthus retroflexus, pre-emergence, 240 h
From the text: as §1, §2

[12] = test system: ragweed (common ragweed, Ambrosia elatior); test: Test A preemergence; details: Ambrosia artemisiifolia, pre-emergence, 240 h
From the text: as §1, §2

[13] = test system: Italian ryegrass (Lolium multiflorum); test: Test A preemergence; details: Lolium multiflorum, pre-emergence, 240 h
From the text: as §1, §2

[14] = test system: barnyardgrass (Echinochloa crus-galli); test: Test A preemergence; details: Echinochloa crus-galli, pre-emergence, 240 h
From the text: as §1, §2

[15] = test system: kochia (Kochia scoparia); test: Test A preemergence; details: Bassia scoparia, pre-emergence, 240 h
From the text: as §1, §2

[16] = test system: giant foxtail (Setaria faberii); test: Test A preemergence; details: Setaria faberi, pre-emergence, 240 h
From the text: as §1, §2

## N#Cc1cccc(Oc2ncc(Br)cn2)c1Oc1ccc(Br)cn1 [Compound 12]
[1]; 31 g ai/ha
  pest or weed control at 31 g/ha: 10%
[1]; 125 g ai/ha
  pest or weed control at 125 g/ha: 100%
[2]; 31 g ai/ha
  plant injury at 31 g/ha: 0%
[2]; 125 g ai/ha
  plant injury at 125 g/ha: 20%
[3]; 31 g ai/ha
  pest or weed control at 31 g/ha: 0%
[3]; 125 g ai/ha
  pest or weed control at 125 g/ha: 0%
[4]; 31 g ai/ha
  pest or weed control at 31 g/ha: 10%
[4]; 125 g ai/ha
  pest or weed control at 125 g/ha: 50%
[5]; 31 g ai/ha
  pest or weed control at 31 g/ha: 0%
[5]; 125 g ai/ha
  pest or weed control at 125 g/ha: 50%
[6]; 31 g ai/ha
  pest or weed control at 31 g/ha: 0%
[6]; 125 g ai/ha
  pest or weed control at 125 g/ha: 0%
[7]; 31 g ai/ha
  pest or weed control at 31 g/ha: 0%
[7]; 125 g ai/ha
  pest or weed control at 125 g/ha: 20%
[8]; 31 g ai/ha
  pest or weed control at 31 g/ha: 0%
[8]; 125 g ai/ha
  pest or weed control at 125 g/ha: 20%
[9]; 31 g ai/ha
  pest or weed control at 31 g/ha: 0%
[9]; 125 g ai/ha
  pest or weed control at 125 g/ha: 40%
[10]; 31 g ai/ha
  Corn plant response rating (crop injury, 0 = no effect, 100 = complete kill) at 31 g/ha: 0%
[10]; 125 g ai/ha
  Corn plant response rating (crop injury, 0 = no effect, 100 = complete kill) at 125 g/ha: 20%
[11]; 31 g ai/ha, 0 to 100 scale (0 no effect, 100 complete control), read-out: Pigweed plant response rating
  pest or weed control at 31 g/ha: 60%
[11]; 125 g ai/ha, 0 to 100 scale, read-out: Plant response rating, Pigweed
  pest or weed control at 125 g/ha: 100%
[12]; 31 g ai/ha, 0 to 100 scale (0 no effect, 100 complete control), read-out: Ragweed plant response rating
  pest or weed control at 31 g/ha: 0%
[12]; 125 g ai/ha, 0 to 100 scale, read-out: Plant response rating, Ragweed
  pest or weed control at 125 g/ha: 0%
[13]; 31 g ai/ha, 0 to 100 scale (0 no effect, 100 complete control), read-out: Ryegrass, Italian plant response rating
  pest or weed control at 31 g/ha: 0%
[13]; 125 g ai/ha, 0 to 100 scale, read-out: Plant response rating, Ryegrass, Italian
  pest or weed control at 125 g/ha: 0%
[14]; 31 g ai/ha, 0 to 100 scale (0 no effect, 100 complete control), read-out: Barnyardgrass plant response rating
  pest or weed control at 31 g/ha: 0%
[14]; 125 g ai/ha, 0 to 100 scale, read-out: Plant response rating, Barnyardgrass
  pest or weed control at 125 g/ha: 30%
[15]; 31 g ai/ha, 0 to 100 scale (0 no effect, 100 complete control), read-out: Kochia plant response rating
  pest or weed control at 31 g/ha: 0%
[15]; 125 g ai/ha, 0 to 100 scale, read-out: Plant response rating, Kochia
  pest or weed control at 125 g/ha: 20%
[16]; 31 g ai/ha, 0 to 100 scale (0 no effect, 100 complete control), read-out: Foxtail, Giant plant response rating
  pest or weed control at 31 g/ha: 0%
[16]; 125 g ai/ha, 0 to 100 scale, read-out: Plant response rating, Foxtail, Giant
  pest or weed control at 125 g/ha: 70%
